Measurements as given in PMC8903829 (eLife, 2022).
Where “and” joins values, the source holds several entries; their conditions need not be identical. Equal values may be shown once. Read-outs that look alike come from different tables or passages of the source.

Columns and labels:
[1] = biological target: T1, hNaV1.6 (Homo sapiens, UniProt Q9UQD0); assay: V0.5 assay (holding potential -62 mV); assay type: cell-based; conditions: V0.5 assay -62 mV
T1 construct: expression vector containing the full-length cDNA coding for specific human and mouse sodium channel α-subunit; expressed in transfected cells
T1 sequence (Q9UQD0 whole entry): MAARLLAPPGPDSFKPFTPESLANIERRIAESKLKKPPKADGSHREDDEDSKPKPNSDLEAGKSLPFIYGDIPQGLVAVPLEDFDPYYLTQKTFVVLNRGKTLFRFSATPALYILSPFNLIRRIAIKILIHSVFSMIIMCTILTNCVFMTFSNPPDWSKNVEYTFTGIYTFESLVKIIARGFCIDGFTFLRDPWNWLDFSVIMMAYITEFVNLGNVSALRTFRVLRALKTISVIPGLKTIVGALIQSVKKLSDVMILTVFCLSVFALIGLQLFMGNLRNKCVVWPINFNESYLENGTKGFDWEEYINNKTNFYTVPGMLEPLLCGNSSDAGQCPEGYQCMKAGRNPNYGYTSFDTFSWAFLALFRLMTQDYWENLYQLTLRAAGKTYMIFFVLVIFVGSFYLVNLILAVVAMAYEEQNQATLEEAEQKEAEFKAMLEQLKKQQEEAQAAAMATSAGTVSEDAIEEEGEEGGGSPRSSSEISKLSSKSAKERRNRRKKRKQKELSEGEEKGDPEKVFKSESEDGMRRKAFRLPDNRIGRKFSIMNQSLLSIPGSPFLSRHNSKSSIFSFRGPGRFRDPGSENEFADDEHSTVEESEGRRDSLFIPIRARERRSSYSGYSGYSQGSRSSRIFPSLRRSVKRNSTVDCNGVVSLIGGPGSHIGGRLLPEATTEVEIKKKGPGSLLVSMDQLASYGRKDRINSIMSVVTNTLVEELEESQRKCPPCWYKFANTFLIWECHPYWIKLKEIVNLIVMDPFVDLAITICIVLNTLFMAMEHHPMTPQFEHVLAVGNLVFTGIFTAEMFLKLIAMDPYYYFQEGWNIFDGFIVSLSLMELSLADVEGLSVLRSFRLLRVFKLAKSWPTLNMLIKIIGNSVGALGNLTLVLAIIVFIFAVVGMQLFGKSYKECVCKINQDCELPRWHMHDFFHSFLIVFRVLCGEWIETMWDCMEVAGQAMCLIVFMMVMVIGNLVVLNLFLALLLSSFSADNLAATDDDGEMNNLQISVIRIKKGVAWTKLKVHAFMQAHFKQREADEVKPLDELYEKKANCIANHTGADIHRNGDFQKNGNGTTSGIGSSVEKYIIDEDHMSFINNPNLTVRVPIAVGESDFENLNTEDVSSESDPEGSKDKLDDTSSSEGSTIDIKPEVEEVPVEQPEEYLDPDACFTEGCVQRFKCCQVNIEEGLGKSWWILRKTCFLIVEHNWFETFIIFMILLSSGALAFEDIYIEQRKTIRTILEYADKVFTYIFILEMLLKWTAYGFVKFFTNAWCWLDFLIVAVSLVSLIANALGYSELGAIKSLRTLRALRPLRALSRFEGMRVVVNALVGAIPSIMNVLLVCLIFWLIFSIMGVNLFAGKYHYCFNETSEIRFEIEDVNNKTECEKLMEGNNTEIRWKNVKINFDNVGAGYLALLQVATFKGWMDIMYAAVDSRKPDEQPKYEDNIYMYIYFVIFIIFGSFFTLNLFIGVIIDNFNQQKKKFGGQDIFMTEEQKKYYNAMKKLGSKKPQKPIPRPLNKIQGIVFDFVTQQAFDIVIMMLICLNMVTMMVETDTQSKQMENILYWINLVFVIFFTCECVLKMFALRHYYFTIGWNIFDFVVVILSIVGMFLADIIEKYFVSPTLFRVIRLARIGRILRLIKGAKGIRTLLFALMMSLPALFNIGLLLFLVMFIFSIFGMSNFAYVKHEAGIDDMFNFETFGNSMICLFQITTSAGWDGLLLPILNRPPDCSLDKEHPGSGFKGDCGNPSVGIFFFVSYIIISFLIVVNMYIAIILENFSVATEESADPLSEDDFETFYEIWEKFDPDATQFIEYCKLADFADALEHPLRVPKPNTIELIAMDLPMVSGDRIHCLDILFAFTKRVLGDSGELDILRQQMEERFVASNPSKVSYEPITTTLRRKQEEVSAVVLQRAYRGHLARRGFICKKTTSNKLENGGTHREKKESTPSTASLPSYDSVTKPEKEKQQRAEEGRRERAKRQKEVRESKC
T1 sequence (Q92913 1-192 isoform Q92913-2 partner): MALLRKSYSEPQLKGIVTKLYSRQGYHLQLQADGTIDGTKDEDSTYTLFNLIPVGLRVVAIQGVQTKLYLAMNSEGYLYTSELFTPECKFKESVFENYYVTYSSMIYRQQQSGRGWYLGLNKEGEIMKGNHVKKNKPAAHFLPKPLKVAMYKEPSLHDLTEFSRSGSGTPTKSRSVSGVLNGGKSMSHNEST

[2] = test system: wild-type mice (CF-1); assay: DC-Maximal electroshock seizure assay (DC-MES); assay type: in vivo, mouse; conditions: for WT mouse DCMES Chronic, Fraction of animals seizing: day 7, 2 h after 13th dose; for WT mouse DCMES acute, Fraction of animals seizing: 2 h
Summary of the method: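 Compounds given 2 hr before corneal DC electroshock; phenytoin i.p. in saline. CF1 mice (9–12 weeks): 50 mA, 60 Hz, 0.2 s; SD rats (5–6 weeks): 150 mA, 60 Hz, 0.3 s; 0.5 ms pulse width, eyes anaesthetised with proparacaine. Absence of tonic-clonic hindlimb extension scored protected (0), blinded scoring.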

[3] = test system: Sprague Dawley rats; assay: Observation of potential adverse behavior (behavioral signs) in the rat DC-MES studies; assay type: in vivo; conditions: rat
Method: Animals were observed by the scientist(s) responsible for dosing for the first 30 min after dosing for and again at the time of assay (2 hr post dose) for signs of abnormal behavior.

[4] = Bioanalytical assessment of plasma and brain concentrations after 6 Hz assay; assay type: in vivo, mouse; conditions: for Mean [Plasma] / Mean [Brain] / concentration at 2 hr: Scn8a mice; for concentration at 2 hr: mouse, po
Summary of the method: (§1)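 Blood (cardiac puncture, EDTA) and whole brains taken at end of the in vivo assay; brain homogenized in 1:1 acetonitrile/water. Plasma and homogenate extracted by acetonitrile protein precipitation with internal standard, quantified by UHPLC-ESI-MS/MS against a 1/X-weighted linear calibration.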

[5] = Bioanalytical assessment of plasma and brain concentrations after mouse DC-MES assay; assay type: in vivo; conditions: WT mice; for concentration at 2 h: mouse, po
Summary of the method: as §1

[6] = 6 mg/kg PO every 12 hr, day 7, 2 hr after 13th dose, 6 mg/kg
[7] = 100 mg/kg PO single dose, after assay 2 hr post dose, 100 mg/kg
[8] = 3 mg/kg PO every 12 hr, day 7, 2 h after 13th dose, 3 mg/kg
[9] = 5 mg/kg PO every 12 hr, day 7, 2 h after 13th dose, 5 mg/kg
[10] = 10 mg/kg PO single dose, 2 h, 10 mg/kg

## Cc1cc(S(=O)(=O)Nc2cscn2)c(F)cc1N(C)[C@H]1CCN(Cc2ccccc2)C1 [NBI-921352]
[1]; 0.0046 µM
  Fraction of hNav1.6 current blocked, mean: -0.01128
[1]; 0.0137 µM
  Fraction of hNav1.6 current blocked, mean: 0.1547
[1]; 0.0412 µM
  Fraction of hNav1.6 current blocked, mean: 0.4966
[1]; 0.123 µM
  Fraction of hNav1.6 current blocked, mean: 0.6688
[1]; 0.37 µM
  Fraction of hNav1.6 current blocked, mean: 0.8319
[1]; 1.11 µM
  Fraction of hNav1.6 current blocked, mean: 0.9499
[1]; 3.33 µM
  Fraction of hNav1.6 current blocked, mean: 0.9695
[1]; 10 µM
  Fraction of hNav1.6 current blocked, mean: 0.9977
[2]; 3 mg/kg PO every 12 hr
  WT mouse DCMES Chronic, Fraction of animals seizing: 0.4 and 0.25
[2]; 3 mg/kg PO single dose
  WT mouse DCMES acute, Fraction of animals seizing: 0.8 and 0.75 and 0.7143
[2]; 5 mg/kg PO every 12 hr
  WT mouse DCMES Chronic, Fraction of animals seizing: 0.25 and 0.2857
[2]; 5 mg/kg PO single dose
  WT mouse DCMES acute, Fraction of animals seizing: 0.625 and 0.7143
[2]; 10 mg/kg PO every 12 hr
  WT mouse DCMES Chronic, Fraction of animals seizing: 0.2
[2]; 10 mg/kg PO single dose
  WT mouse DCMES acute, Fraction of animals seizing: 0.6 and 0.4286 and 0.6667
[2]; 30 mg/kg PO single dose
  WT mouse DCMES acute, Fraction of animals seizing: 0.3333 and 0.4 and 0.4286
[2]; 100 mg/kg PO single dose
  WT mouse DCMES acute, Fraction of animals seizing: 0.2857
[2]; 200 mg/kg PO single dose
  WT mouse DCMES acute, Fraction of animals seizing: 0.1667
[2]; WT mouse DC-MES, 2 hr post dose (oral; phenytoin i.p.), read-out: brain EC50
  EC50: 200 nM
[2]; WT mouse DC-MES, oral, 2 hr, read-out: ED50, prevention of GTC with hindlimb extension
  ED50: 23 mg/kg
[2]; WT mouse DC-MES, read-out: plasma EC50
  EC50: 520 nM
[3]
  minimal plasma concentration provoking behavioral signs (BSC): 71 µM
[4]; 3 mg/kg PO single dose, after assay 2 hr post dose, 3 mg/kg
  Mean [Plasma]: 0.003985 µM
[4]; [6]
  Mean [Brain]: 0.02201 µM and 0.01923 µM
  Mean [Plasma]: 0.01663 µM and 0.02029 µM
[4]; 10 mg/kg PO single dose, after assay 2 hr post dose, 10 mg/kg
  Mean [Plasma]: 0.01541 µM
[4]; 30 mg/kg PO single dose, after assay 2 hr post dose, 30 mg/kg
  Mean [Brain]: 0.133 µM and 0.1224 µM and 0.09287 µM and 0.1253 µM
[4]; [7]
  Mean [Brain]: 0.3467 µM
  Mean [Plasma]: 0.5385 µM
[4]; Scn8a^N1768D/+ (heterozygous gain-of-function knock-in line), brain, 30 mg/kg, 30 mg/kg PO single dose, after assay 2 hr post dose, read-out: Mean [Brain]
  concentration at 2 hr: 96.6 nM
[4]; Scn8a^N1768D/+ (heterozygous gain-of-function knock-in line), brain, 100 mg/kg, 100 mg/kg PO single dose, after assay 2 hr post dose, read-out: Mean [Brain]
  concentration at 2 hr: 357 nM
[4]; Scn8a^N1768D/+ (heterozygous gain-of-function knock-in line), plasma, 3 mg/kg, 3 mg/kg PO single dose, after assay 2 hr post dose, read-out: Mean [Plasma]
  concentration at 2 hr: 3.45 nM
[4]; Scn8a^N1768D/+ (heterozygous gain-of-function knock-in line), plasma, 10 mg/kg, 10 mg/kg PO single dose, after assay 2 hr post dose, read-out: Mean [Plasma]
  concentration at 2 hr: 9.56 nM
[4]; Scn8a^N1768D/+ (heterozygous gain-of-function knock-in line), plasma, 100 mg/kg, 100 mg/kg PO single dose, after assay 2 hr post dose, read-out: Mean [Plasma]
  concentration at 2 hr: 717 nM
[4]; Scn8a^N1768D/+, brain, 2 mg/kg, 2 mg/kg PO every 12 hr, day 7, 2 hr after 13th dose, read-out: Mean [Brain]
  concentration at 2 hr: 10.5 nM
[4]; Scn8a^N1768D/+, brain, 2 mg/kg, 2 mg/kg PO single dose, after assay 2 hr post dose, read-out: Mean [Brain]
  concentration at 2 hr: 8.02 nM
[4]; Scn8a^N1768D/+, brain, 6 mg/kg, 6 mg/kg PO every 12 hr, day 7, 2 hr after 13th dose, read-out: Mean [Brain]
  concentration at 2 hr: 28.8 nM
[4]; Scn8a^N1768D/+, brain, 200 mg/kg, 200 mg/kg PO single dose, after assay 2 hr post dose, read-out: Mean [Brain]
  concentration at 2 hr: 3850 nM
[4]; Scn8a^N1768D/+, brain, 300 mg/kg, 300 mg/kg PO single dose, after assay 2 hr post dose, read-out: Mean [Brain]
  concentration at 2 hr: 6940 nM
[4]; Scn8a^N1768D/+, plasma, 2 mg/kg, 2 mg/kg PO every 12 hr, day 7, 2 hr after 13th dose, read-out: Mean [Plasma]
  concentration at 2 hr: 2.95 nM
[4]; Scn8a^N1768D/+, plasma, 2 mg/kg, 2 mg/kg PO single dose, after assay 2 hr post dose, read-out: Mean [Plasma]
  concentration at 2 hr: 1.08 nM
[4]; Scn8a^N1768D/+, plasma, 6 mg/kg, 6 mg/kg PO every 12 hr, day 7, 2 hr after 13th dose, read-out: Mean [Plasma]
  concentration at 2 hr: 13.2 nM
[4]; Scn8a^N1768D/+, plasma, 200 mg/kg, 200 mg/kg PO single dose, after assay 2 hr post dose, read-out: Mean [Plasma]
  concentration at 2 hr: 12600 nM
[4]; Scn8a^N1768D/+, plasma, 300 mg/kg, 300 mg/kg PO single dose, after assay 2 hr post dose, read-out: Mean [Plasma]
  concentration at 2 hr: 31500 nM
[4]; every 12 hr for 13 doses, mice and rats
  accumulation in the plasma or tissue on repeated dosing: did not appreciably accumulate
[5]; [8]
  Mean [Brain]: 0.01911 µM
  Mean [Plasma]: 0.01423 µM
[5]; 3 mg/kg PO single dose, 2 h, 3 mg/kg
  Mean [Plasma]: 0.01728 µM and 0.009122 µM
[5]; [9]
  Mean [Brain]: 0.02064 µM
  Mean [Plasma]: 0.03091 µM
[5]; 5 mg/kg PO single dose, 2 h, 5 mg/kg
  Mean [Plasma]: 0.0212 µM
[5]; [10]
  Mean [Brain]: 0.05777 µM and 0.08031 µM
  Mean [Plasma]: 0.1016 µM and 0.1012 µM
[5]; brain, 3 mg/kg, 3 mg/kg PO every 12 hr, day 7, 2 h after 13th dose, read-out: Mean [Brain]
  concentration at 2 h: 12.8 nM
[5]; brain, 5 mg/kg, 5 mg/kg PO every 12 hr, day 7, 2 h after 13th dose, read-out: Mean [Brain]
  concentration at 2 h: 37.7 nM
[5]; brain, 10 mg/kg, 10 mg/kg PO every 12 hr, day 7, 2 h after 13th dose, read-out: Mean [Brain]
  concentration at 2 h: 37.7 nM
[5]; brain, 10 mg/kg, 10 mg/kg PO single dose, 2 h, read-out: Mean [Brain]
  concentration at 2 h: 51.9 nM
[5]; brain, 100 mg/kg, 100 mg/kg PO single dose, 2 h, read-out: Mean [Brain]
  concentration at 2 h: 646 nM
[5]; brain, 200 mg/kg, 200 mg/kg PO single dose, 2 h, read-out: Mean [Brain]
  concentration at 2 h: 3880 nM
[5]; plasma, 3 mg/kg, 3 mg/kg PO every 12 hr, day 7, 2 h after 13th dose, read-out: Mean [Plasma]
  concentration at 2 h: 17.7 nM
[5]; plasma, 3 mg/kg, 3 mg/kg PO single dose, 2 h, read-out: Mean [Plasma]
  concentration at 2 h: 11.2 nM
[5]; plasma, 5 mg/kg, 5 mg/kg PO every 12 hr, day 7, 2 h after 13th dose, read-out: Mean [Plasma]
  concentration at 2 h: 43 nM
[5]; plasma, 5 mg/kg, 5 mg/kg PO single dose, 2 h, read-out: Mean [Plasma]
  concentration at 2 h: 36.8 nM
[5]; plasma, 10 mg/kg, 10 mg/kg PO every 12 hr, day 7, 2 h after 13th dose, read-out: Mean [Plasma]
  concentration at 2 h: 151 nM
[5]; plasma, 10 mg/kg, 10 mg/kg PO single dose, 2 h, read-out: Mean [Plasma]
  concentration at 2 h: 94.2 nM
[5]; plasma, 100 mg/kg, 100 mg/kg PO single dose, 2 h, read-out: Mean [Plasma]
  concentration at 2 h: 3330 nM
[5]; plasma, 200 mg/kg, 200 mg/kg PO single dose, 2 h, read-out: Mean [Plasma]
  concentration at 2 h: 34700 nM
